Assay results from US20220273659A1, “HETEROCYCLIC COMPOUNDS AS KINASE INHIBITORS” (NUVATION BIO INC., priority 2019, published 2022).
Where a name gives a salt, the structure may show the parent alone. Read-outs that look alike come from different tables or passages of the source.

Columns and labels:
PI3Kδ kinase = biological target: T1, PI3Kδ kinase (Homo sapiens, UniProt O00329); assay: PI3Kδ kinase assay (ADP-Glo, Reaction Biology); type: biochemical
T1 construct: purchased Reaction Biology Corporation (assay service)
Method in brief: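 Kinase in Tris-HCl 40 mM pH 7.5, MgCl2 20 mM, orthovanadate 3 mM, DTT 2 mM, 0.05% CHAPS, 1% DMSO, preincubated 10 min at room temperature with compound (about 0.5 nM–100 μM). ATP started a 30-min reaction at 30 °C. ADP-Glo luminescence converted to μM ADP via standard curve; IC50 from nonlinear regression.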

CDK2 (cyclin A) = biological target: T2, CDK2 (cyclin A) (Homo sapiens, UniProt P24941); assay: Z'-LYTE kinase assay; type: biochemical
T2 construct: purchased Invitrogen Life Technologies (assay service)
Method in brief: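 FRET-based Z′-LYTE read-out using 1.22–10.3 ng CDK2/cyclin A with Ser/Thr 12 peptide (2 μM in the 2× mix) and ATP (31 μM as the 4× solution), in HEPES pH 7.5, MgCl2, EGTA and BRIJ-35, for 60 min at room temperature. After 1 h of development, the 445/520 nm emission was read, and percent inhibition was fitted to a four-parameter logistic curve for IC50.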

CDK6 = biological target: T3, CDK6 (Homo sapiens, UniProt Q00534); assay: In vitro kinase inhibition IC50, luminescence (ADP Glo), retinoblastoma substrate; type: biochemical; settings: read-out: CDK6/D1 IC50
T3 construct: purchased Invitrogen PR8422B
Method in brief: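 IC50 derived by four-parameter logistic fit of percent inhibition, read as ADP-Glo luminescence. Reactions: 5 nM CDK6, 1 μM retinoblastoma, 25 μM ATP, test compound 0.1–200 nM final, 2 h at room temperature.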

CDK4 = biological target: T4, CDK4 (Homo sapiens, UniProt P11802); assay: as above; type: biochemical; settings: read-out: CDK4/D1 IC50
T4 construct: purchased Invitrogen PR8064A
Method in brief: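 Inhibition of CDK4 was quantified by ADP Glo luminescence with retinoblastoma as substrate. Reactions held 5 nM kinase, 1 μM retinoblastoma and 25 μM ATP and ran 2H at room temperature. A Synergy Neo reader took signals 15 min and 45 min after detection reagent, and percent inhibition was fitted to a four-parameter logistic model in XLfit to obtain IC50.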

CDK1 (cyclin B) = biological target: T5, CDK1 (cyclin B) (Homo sapiens, UniProt P06493); assay: Z'-LYTE kinase assay; type: biochemical
T5 construct: purchased Invitrogen Life Technologies (assay service)
Description: The plates were shaken for 30 seconds, and incubated for 60 minutes at room temperature. […] The plates were read on fluorescence plate reader with Dual emission at 445 nm and 520 nm.
The following equations were used for Z′-LYTE™ Screening Assay Data Analysis.

[1] = system: DU4475 breast carcinoma cells; assay: Cancer cell proliferation assay, single agent (cell viability); type: cell-based; settings: Homo sapiens, DU-4475; Table 4; Rb negative; treatment 144 Hr with medium change at 72 Hr; Cell Titer-Glo or resazurin
Method in brief: (§1)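 Viability read by resazurin or CellTiter-Glo after 24 h treatment (BT-549) or 144 h with a 72 h medium change (MCF-7, DU4475). Compounds tested at 7–9 concentrations, e.g. 1.1 nM–10 μM, added the day after seeding; IC50 by nonlinear sigmoidal regression.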

FMS kinase = biological target: T6, FMS kinase (Homo sapiens, UniProt P07333); assay: LanthaScreen Eu Kinase Binding Assay (ATP, fluorescent-PolyGT substrate); type: biochemical
T6 construct: purchased Invitrogen (Life Technologies)
Method in brief: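 TR-FRET read (ex 340, em 495 and 520 nm) after EDTA/Tb-labelled antibody stop; IC50 by four-parameter logistic fit of percent inhibition. Reaction: 1.25 nM FMS, 10 min compound preincubation (3-fold series), then 1 h at room temperature with 10 μM ATP and 200 nM fluorescent PolyGT.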

[2] = system: MCF-7 breast adenocarcinoma cells; assay: Cancer cell proliferation assay, single agent (cell viability); type: cell-based; settings: Homo sapiens, MCF7, Table 4; Rb positive; treatment 144 Hr with medium change at 72 Hr; Cell Titer-Glo or resazurin
Method in brief: as §1

T1 sequence (O00329 whole entry): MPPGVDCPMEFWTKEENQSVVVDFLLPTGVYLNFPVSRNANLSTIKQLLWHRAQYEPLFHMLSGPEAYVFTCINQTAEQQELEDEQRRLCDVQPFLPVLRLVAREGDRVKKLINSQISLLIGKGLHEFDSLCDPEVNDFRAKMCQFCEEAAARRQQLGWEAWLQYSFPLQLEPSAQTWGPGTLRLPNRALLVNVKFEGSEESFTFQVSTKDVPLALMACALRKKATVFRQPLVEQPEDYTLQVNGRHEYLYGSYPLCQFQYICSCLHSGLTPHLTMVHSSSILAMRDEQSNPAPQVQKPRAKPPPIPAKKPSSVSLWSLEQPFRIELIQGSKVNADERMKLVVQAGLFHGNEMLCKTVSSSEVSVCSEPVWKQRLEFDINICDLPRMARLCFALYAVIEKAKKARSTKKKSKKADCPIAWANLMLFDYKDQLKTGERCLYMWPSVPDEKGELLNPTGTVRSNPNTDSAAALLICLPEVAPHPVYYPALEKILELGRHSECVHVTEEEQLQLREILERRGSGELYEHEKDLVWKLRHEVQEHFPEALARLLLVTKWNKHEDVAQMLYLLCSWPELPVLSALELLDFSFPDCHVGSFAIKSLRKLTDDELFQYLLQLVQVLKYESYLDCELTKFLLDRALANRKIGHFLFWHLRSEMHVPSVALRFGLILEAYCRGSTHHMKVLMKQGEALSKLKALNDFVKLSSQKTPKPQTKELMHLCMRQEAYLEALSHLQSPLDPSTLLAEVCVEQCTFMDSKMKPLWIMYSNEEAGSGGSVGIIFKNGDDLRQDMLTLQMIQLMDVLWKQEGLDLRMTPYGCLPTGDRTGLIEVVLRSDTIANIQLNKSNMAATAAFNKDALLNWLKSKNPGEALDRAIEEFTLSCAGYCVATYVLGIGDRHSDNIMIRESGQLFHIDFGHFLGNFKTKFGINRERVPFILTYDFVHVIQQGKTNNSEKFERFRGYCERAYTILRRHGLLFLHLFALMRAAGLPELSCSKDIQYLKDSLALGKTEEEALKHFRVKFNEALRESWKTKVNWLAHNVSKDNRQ
T1 sequence (P27986 whole entry partner): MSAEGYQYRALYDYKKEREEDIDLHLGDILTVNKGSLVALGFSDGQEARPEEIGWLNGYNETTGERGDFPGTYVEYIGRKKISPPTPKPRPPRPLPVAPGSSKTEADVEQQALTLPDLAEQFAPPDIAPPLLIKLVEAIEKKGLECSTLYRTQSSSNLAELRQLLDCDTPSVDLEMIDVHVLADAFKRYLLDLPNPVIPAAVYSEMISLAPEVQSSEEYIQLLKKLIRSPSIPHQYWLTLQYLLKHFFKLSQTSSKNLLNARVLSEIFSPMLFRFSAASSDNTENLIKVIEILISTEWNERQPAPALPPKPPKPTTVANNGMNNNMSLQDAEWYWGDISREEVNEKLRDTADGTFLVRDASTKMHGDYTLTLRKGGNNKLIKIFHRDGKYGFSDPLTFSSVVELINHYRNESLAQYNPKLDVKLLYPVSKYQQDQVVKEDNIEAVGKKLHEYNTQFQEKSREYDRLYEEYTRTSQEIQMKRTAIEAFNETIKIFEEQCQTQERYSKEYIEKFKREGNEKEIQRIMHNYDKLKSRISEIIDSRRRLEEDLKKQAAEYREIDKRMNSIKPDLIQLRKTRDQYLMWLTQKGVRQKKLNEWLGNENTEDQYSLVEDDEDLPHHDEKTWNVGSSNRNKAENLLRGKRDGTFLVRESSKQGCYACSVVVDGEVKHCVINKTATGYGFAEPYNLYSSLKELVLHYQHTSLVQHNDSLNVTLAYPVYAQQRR
T3 sequence (Q00534 whole entry): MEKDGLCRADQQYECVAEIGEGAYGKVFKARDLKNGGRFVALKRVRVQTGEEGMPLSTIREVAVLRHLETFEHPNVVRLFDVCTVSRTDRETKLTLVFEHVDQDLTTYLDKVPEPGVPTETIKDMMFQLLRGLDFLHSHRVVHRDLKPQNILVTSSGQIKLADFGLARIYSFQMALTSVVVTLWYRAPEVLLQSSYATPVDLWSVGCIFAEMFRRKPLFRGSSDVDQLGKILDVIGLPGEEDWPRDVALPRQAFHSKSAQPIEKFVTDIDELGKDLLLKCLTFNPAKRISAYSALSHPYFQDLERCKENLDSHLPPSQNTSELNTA
T3 sequence (P24385 whole entry partner): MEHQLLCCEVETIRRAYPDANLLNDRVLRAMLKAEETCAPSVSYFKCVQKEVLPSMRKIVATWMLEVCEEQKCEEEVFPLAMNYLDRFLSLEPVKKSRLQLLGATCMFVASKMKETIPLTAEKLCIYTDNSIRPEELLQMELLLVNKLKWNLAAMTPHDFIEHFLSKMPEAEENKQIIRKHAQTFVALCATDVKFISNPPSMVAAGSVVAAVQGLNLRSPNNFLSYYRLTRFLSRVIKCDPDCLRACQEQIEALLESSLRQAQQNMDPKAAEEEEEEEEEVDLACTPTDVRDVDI
T4 sequence (P11802 whole entry): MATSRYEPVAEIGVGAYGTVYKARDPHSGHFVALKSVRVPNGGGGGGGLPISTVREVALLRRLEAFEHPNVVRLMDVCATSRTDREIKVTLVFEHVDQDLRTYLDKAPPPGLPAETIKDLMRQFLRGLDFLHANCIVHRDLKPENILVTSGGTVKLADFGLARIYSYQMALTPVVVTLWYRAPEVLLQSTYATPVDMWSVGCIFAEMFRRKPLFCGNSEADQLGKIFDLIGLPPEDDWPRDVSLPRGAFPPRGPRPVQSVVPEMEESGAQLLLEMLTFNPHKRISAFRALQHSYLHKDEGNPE
T4 sequence (P24385 whole entry partner): as the sequence (P24385 whole entry partner) above
T6 sequence (P07333 20-972): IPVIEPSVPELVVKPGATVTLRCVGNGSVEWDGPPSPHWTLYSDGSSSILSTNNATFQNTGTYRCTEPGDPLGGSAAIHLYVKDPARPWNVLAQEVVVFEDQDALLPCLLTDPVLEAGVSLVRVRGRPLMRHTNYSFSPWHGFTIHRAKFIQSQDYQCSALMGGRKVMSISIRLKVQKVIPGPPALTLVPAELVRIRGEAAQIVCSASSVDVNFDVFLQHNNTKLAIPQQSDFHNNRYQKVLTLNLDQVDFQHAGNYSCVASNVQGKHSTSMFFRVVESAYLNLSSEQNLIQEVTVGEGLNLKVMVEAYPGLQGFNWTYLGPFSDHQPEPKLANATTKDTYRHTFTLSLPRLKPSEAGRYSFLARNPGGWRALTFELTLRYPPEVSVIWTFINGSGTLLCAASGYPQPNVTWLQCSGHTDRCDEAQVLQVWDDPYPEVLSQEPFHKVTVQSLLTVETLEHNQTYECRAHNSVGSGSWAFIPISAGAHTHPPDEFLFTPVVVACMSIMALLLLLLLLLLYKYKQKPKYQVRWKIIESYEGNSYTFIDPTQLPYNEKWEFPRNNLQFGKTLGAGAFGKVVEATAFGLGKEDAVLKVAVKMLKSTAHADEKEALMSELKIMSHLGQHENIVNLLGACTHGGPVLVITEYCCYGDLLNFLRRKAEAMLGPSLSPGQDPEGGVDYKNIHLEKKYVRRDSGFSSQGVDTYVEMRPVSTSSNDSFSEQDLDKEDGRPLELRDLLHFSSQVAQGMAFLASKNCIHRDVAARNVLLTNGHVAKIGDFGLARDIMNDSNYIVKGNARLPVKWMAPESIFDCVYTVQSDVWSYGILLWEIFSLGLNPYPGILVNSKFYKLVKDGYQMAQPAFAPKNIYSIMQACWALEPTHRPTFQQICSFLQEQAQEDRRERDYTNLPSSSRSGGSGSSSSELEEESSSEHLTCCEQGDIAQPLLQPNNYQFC
T5 sequence (P06493 whole entry): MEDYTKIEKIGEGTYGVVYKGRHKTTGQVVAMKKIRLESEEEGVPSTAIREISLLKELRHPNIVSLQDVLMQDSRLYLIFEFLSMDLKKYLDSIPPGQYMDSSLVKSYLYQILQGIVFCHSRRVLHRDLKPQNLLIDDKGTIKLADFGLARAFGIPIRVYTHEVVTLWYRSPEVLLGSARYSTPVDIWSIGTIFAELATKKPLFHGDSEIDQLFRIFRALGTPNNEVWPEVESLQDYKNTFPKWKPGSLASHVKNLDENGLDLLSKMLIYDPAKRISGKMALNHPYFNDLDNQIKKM
T5 sequence (P14635 whole entry partner): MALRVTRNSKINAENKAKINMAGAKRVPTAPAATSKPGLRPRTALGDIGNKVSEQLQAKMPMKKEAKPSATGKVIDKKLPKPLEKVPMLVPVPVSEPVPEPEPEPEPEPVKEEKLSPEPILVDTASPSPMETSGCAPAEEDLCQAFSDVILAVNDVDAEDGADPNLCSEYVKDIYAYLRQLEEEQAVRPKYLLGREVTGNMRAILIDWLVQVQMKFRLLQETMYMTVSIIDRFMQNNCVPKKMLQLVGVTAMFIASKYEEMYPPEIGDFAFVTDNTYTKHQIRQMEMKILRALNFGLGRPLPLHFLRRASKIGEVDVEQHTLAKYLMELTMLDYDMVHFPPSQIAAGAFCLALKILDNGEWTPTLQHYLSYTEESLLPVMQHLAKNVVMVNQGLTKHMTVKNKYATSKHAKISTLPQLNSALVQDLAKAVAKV

SMILES	IC50 (PI3Kδ kinase)	IC50 (CDK2 (cyclin A))	IC50 (CDK6)	IC50 (CDK4)	IC50 (CDK1 (cyclin B); read-out: CDK1/B IC50)	IC50 [1]	IC50 (FMS kinase)	IC50 [2]	IC50 (CDK1 (cyclin B))
CN1CCC(c2ccc(Nc3cc4c(cn3)cc(C#N)c(=O)n4C3CCCC3)cc2)CC1 [Compound No. 89, 1-cyclopentyl-7-((4-(1-methylpiperidin-4-yl)phenyl)amino)-2-oxo-1,2-dihydro-1,6-naphthyridine-3-carbonitrile]	751 nM	874 nM	10 nM	20 nM	> 5000 nM	5200 nM	–	–	–
CN1CCN(c2ccc(Nc3cc4c(cn3)cc(C#N)c(=O)n4C3CCCC3)cc2)CC1 [Compound No. 87, 1-cyclopentyl-7-((4-(4-methylpiperazin-1-yl)phenyl)amino)-2-oxo-1,2-dihydro-1,6-naphthyridine-3-carbonitrile]	549 nM	> 3640 nM	21 nM	58 nM	> 5000 nM	6700 nM	–	–	–
N#Cc1cc2cnc(Nc3ccc4c(c3)CCNC4)cc2n(C2CCCC2)c1=O [Compound No. 90, 1-cyclopentyl-2-oxo-7-((1,2,3,4-tetrahydroisoquinolin-6-yl)amino)-1,2-dihydro-1,6-naphthyridine-3-carbonitrile]	4940 nM	619 nM	115 nM	132 nM	> 5000 nM	4900 nM	–	–	–
N#Cc1cc2cnc(Nc3ccc4c(c3)CCNC4)nc2n(C2CCC2)c1=O [Compound No. 91, 8-cyclobutyl-7-oxo-2-((1,2,3,4-tetrahydroisoquinolin-6-yl)amino)-7,8-dihydropyrido[2,3-d]pyrimidine-6-carbonitrile hydrochloride]	705 nM	79 nM	28 nM	84 nM	913 nM	510 nM	–	–	–
N#Cc1cc2cnc(Nc3ccc4c(c3)CCNC4)nc2n(CC2CCCCC2)c1=O [Compound No. 347, 8-(cyclohexylmethyl)-7-oxo-2-((1,2,3,4-tetrahydroisoquinolin-6-yl)amino)-7,8-dihydropyrido[2,3-d]pyrimidine-6-carbonitrile]	–	668 nM	> 174 nM	> 173 nM	1530 nM	1240 nM	3 nM	405 nM	–
N#Cc1cc2cnc(Nc3ccc4c(c3)CNCC4)cc2n(C2CCCC2)c1=O [Compound No. 95, 1-cyclopentyl-2-oxo-7-((1,2,3,4-tetrahydroisoquinolin-7-yl)amino)-1,2-dihydro-1,6-naphthyridine-3-carbonitrile]	4700 nM	2040 nM	> 184 nM	> 200 nM	> 5000 nM	1500 nM	–	3580 nM	–
Cc1ccc(S(=O)(=O)N2CCC(Nc3ncc4cc(C#N)c(=O)n(C5CCCC5)c4n3)CC2)cc1 [Compound No. 360, 8-cyclopentyl-7-oxo-2-((1-tosylpiperidin-4-yl)amino)-7,8-dihydropyrido[2,3-d]pyrimidine-6-carbonitrile]	–	< 1 nM	13 nM	1.5 nM	–	1420 nM	> 5000 nM	255 nM	598 nM
CC1(C)NCCc2cc(Nc3ncc4cc(C#N)c(=O)n(C5CCCC5)c4n3)ccc21 [Compound No. 92, 8-cyclopentyl-2-((1,1-dimethyl-1,2,3,4-tetrahydroisoquinolin-6-yl)amino)-7-oxo-7,8-dihydropyrido[2,3-d]pyrimidine-6-carbonitrile]	725 nM	16 nM	6 nM	15 nM	118 nM	420 nM	–	–	–
N#Cc1cc2cnc(Nc3ccc4c(c3)CCNC4)nc2n([C@H]2C[C@@H]3CC[C@H]2C3)c1=O (relative stereo) [Compound No. 354, 8-((S,2S,4R)-bicyclo[2.2.1]heptan-2-yl)-7-oxo-2-(1,2,3,4-tetrahydroisoquinolin-6-ylamino)-7,8-dihydropyrido[2,3-d]pyrimidine-6-carbonitrile]	–	176 nM	12 nM	12 nM	534 nM	320 nM	3.5 nM	120 nM	–
N#Cc1cc2cnc(NC3CCN(S(=O)(=O)C(F)F)CC3)nc2n(C2CCCC2)c1=O [Compound No. 359, 8-cyclopentyl-2-((1-((difluoromethyl)sulfonyl)piperidin-4-yl)amino)-7-oxo-7,8-dihydropyrido[2,3-d]pyrimidine-6-carbonitrile]	–	1870 nM	12 nM	1.4 nM	> 5000 nM	3240 nM	> 5000 nM	330 nM	–
CS(=O)(=O)N1CCC(Nc2ncc3cc(C#N)c(=O)n(C4COCC4O)c3n2)CC1 (stereo not shown) [Compound No. 350, 8-(4-hydroxytetrahydrofuran-3-yl)-2-((1-(methylsulfonyl)piperidin-4-yl)amino)-7-oxo-7,8-dihydropyrido[2,3-d]pyrimidine-6-carbonitrile]	–	235 nM	> 200 nM	> 200 nM	2270 nM	> 30000 nM	> 5000 nM	> 10000 nM	–
N#Cc1cc2cnc(Nc3ccc(N4CCNCC4)cc3)cc2n(C2CCCC2)c1=O [Compound No. 88, 1-cyclopentyl-2-oxo-7-((4-(piperazin-4-yl)phenyl)amino)-1,2-dihydro-1,6-naphthyridine-3-carbonitrile]	905 nM	1100 nM	12 nM	34 nM	> 5000 nM	1560 nM	–	–	–
CCC(C)n1c(=O)c(C#N)cc2cnc(NC3CCN(S(C)(=O)=O)CC3)nc21 (stereo not shown) [Compound No. 351, 8-(sec-butyl)-2-((1-(methylsulfonyl)piperidin-4-yl)amino)-7-oxo-7,8-dihydropyrido[2,3-d]pyrimidine-6-carbonitrile]	–	18 nM	15 nM	48 nM	117 nM	1400 nM	1160 nM	205 nM	–
N#Cc1cc2cnc(NC3CCN(S(=O)(=O)c4ccc(F)cc4)CC3)nc2n(C2CCCC2)c1=O [Compound No. 361, 8-cyclopentyl-2-((1-((4-fluorophenyl)sulfonyl)piperidin-4-yl)amino)-7-oxo-7,8-dihydropyrido[2,3-d]pyrimidine-6-carbonitrile]	–	< 1 nM	7.1 nM	1.3 nM	–	1040 nM	539 nM	310 nM	157 nM
CS(=O)(=O)N1CC[C@@H](Nc2ncc3cc(C#N)c(=O)n(C4CCCC4)c3n2)[C@H](F)C1 [Compound No. 362, 8-cyclopentyl-2-((3R,4R)-3-fluoro-1-(methylsulfonyl)piperidin-4-ylamino)-7-oxo-7,8-dihydropyrido[2,3-d]pyrimidine-6-carbonitrile]	–	82 nM	15 nM	6 nM	–	2680 nM	90 nM	765 nM	1280 nM
CS(=O)(=O)N1CCC(Nc2ncc3cc(C#N)c(=O)n(CC4CCCCC4)c3n2)CC1 [Compound No. 348, 8-(cyclohexylmethyl)-2-((1-(methylsulfonyl)piperidin-4-yl)amino)-7-oxo-7,8-dihydropyrido[2,3-d]pyrimidine-6-carbonitrile]	–	219 nM	55 nM	62 nM	–	6840 nM	31 nM	725 nM	1380 nM
